Data: paper PMC5908784, “Extracellular loops 2 and 3 of the calcitonin receptor selectively modify agonist binding and efficacy” (Biochemical Pharmacology, 2018)
Substitutions are numbered along the chain they refer to. Where a SMILES comes first, the peptide text is derived from it. Bridges are numbered along the chain shown (N, C = ends).

Key:
Assay type in all cases: cell-based
[1] = biological target: T1, hCTR E294A (Homo sapiens, UniProt P30988, E294A); experiment: cAMP accumulation; settings: mean ± S.E.M.; for Emax: cAMP maximal response, SEM; for EC50: cAMP, CV1-FlpIn cells, 30 min, IBMX
T1 construct: c-Myc (N); expressed in transfected cells
T1 sequence (P30988 25-474 E294A): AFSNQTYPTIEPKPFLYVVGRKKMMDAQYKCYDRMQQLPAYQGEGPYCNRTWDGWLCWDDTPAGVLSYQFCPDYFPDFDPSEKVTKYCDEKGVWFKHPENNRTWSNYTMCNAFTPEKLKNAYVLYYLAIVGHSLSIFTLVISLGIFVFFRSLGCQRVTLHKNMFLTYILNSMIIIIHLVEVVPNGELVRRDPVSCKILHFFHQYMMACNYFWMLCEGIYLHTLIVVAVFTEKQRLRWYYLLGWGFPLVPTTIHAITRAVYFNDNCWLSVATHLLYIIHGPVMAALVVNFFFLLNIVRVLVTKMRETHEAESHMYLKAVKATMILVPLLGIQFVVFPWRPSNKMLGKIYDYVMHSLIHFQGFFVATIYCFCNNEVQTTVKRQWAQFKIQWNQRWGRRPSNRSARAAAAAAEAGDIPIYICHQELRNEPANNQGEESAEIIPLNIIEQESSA
Experimental: (§1) Cells (2.5 × 10^4 cells/well) were seeded into 96-well plates and incubated overnight. Cells were stimulated with increasing concentrations of ligands for 30 min in the presence of IBMX. The liquid was discarded, changed to absolute ethanol and volatilized to dryness at room temperature. […] Data were normalized to the response of 100 μM forskolin.
(§2) Data were corrected for radioligand occupancy using the Cheng-Prusoff equation in Prism; as such data are reported as pKi. Emax and EC50 were estimated from concentration-response curves using with a 3-parameter logistic equation in Prism (v7). These values are a composite of functional affinity, efficacy and stimulus response coupling. […] Significance was accepted at P < 0.05.

[2] = biological target: T2, hCTR F359A (Homo sapiens, UniProt P30988, F359A); experiment: cAMP accumulation; settings: mean ± S.E.M.; for Emax: cAMP maximal response, SEM; for EC50: cAMP, CV1-FlpIn cells, 30 min, IBMX
T2 construct: expressed in transfected cells
T2 sequence (P30988 25-474 F359A): T1 sequence (P30988 25-474 E294A) with A270E, F335A
Experimental: as §1, §2

[3] = biological target: T3, hCTR I300A (Homo sapiens, UniProt P30988, I300A); experiment: cAMP accumulation; settings: mean ± S.E.M.; for Emax: cAMP maximal response, SEM; for EC50: cAMP, CV1-FlpIn cells, 30 min, IBMX
T3 construct: c-Myc (N); expressed in transfected cells
T3 sequence (P30988 25-474 I300A): T1 sequence (P30988 25-474 E294A) with A270E, I276A
Experimental: as §1, §2

[4] = biological target: T4, hCTR K366A (Homo sapiens, UniProt P30988, K366A); experiment: cAMP accumulation; settings: mean ± S.E.M.; for Emax: cAMP maximal response, SEM; for EC50: cAMP, CV1-FlpIn cells, 30 min, IBMX
T4 construct: c-Myc (N); expressed in transfected cells
T4 sequence (P30988 25-474 K366A): T1 sequence (P30988 25-474 E294A) with A270E, K342A
Experimental: as §1, §2

[5] = biological target: T5, hCTR V375A (Homo sapiens, UniProt P30988, V375A); experiment: IP1 accumulation; settings: mean ± S.E.M.; for Emax: IP1 maximal response, SEM
T5 construct: c-Myc (N); expressed in transfected cells
T5 sequence (P30988 25-474 V375A): T1 sequence (P30988 25-474 E294A) with A270E, V351A
Procedure, shortened: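 Ligand-induced IP1 (60 min, LiCl) measured by HTRF; normalized to 100 μM ATP response.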

Compound | Emax [1] [%] | EC50 [1] [nM] | Emax [2] [%] | EC50 [2] [nM] | Emax [3] [%] | EC50 [3] [nM] | Emax [4] [%] | EC50 [4] [nM] | Emax [5] [%] | EC50 ([5]; IP1, CV1-FlpIn cells, 60 min, LiCl) [nM]
CC(C)C[C@H](NC(=O)CNC(=O)[C@H](C)NC(=O)[C@H](CC(C)C)NC(=O)[C@H](CCCNC(=N)N)NC(=O)[C@H](Cc1cnc[nH]1)NC(=O)[C@@H](NC(=O)[C@@H](NC(=O)[C@@H]1CSSC[C@H](NC(=O)[C@H](C)N)C(=O)N[C@@H](CC(=O)O)C(=O)N[C@@H]([C@@H](C)O)C(=O)N[C@@H](C)C(=O)N[C@@H]([C@@H](C)O)C(=O)N1)C(C)C)[C@@H](C)O)C(=O)N[C@@H](CC(C)C)C(=O)N[C@@H](CO)C(=O)N[C@@H](CCCNC(=N)N)C(=O)N[C@@H](CO)C(=O)NCC(=O)NCC(=O)N[C@H](C(=O)N[C@H](C(=O)N[C@@H](CCCCN)C(=O)N[C@@H](CC(N)=O)C(=O)N[C@@H](CC(N)=O)C(=O)N[C@@H](Cc1ccccc1)C(=O)N[C@H](C(=O)N1CCC[C@H]1C(=O)N[C@H](C(=O)N[C@@H](CC(N)=O)C(=O)N[C@H](C(=O)NCC(=O)N[C@@H](CO)C(=O)N[C@@H](CCCCN)C(=O)N[C@@H](C)C(=O)N[C@@H](Cc1ccccc1)C(N)=O)C(C)C)[C@@H](C)O)C(C)C)C(C)C)C(C)C [hαCGRP] | 137 ± 31 | 49 | 53 ± 8 | 18.6 | 73 ± 14 | 19.5 | 73 ± 13 | 5.37 |  | 
CC[C@H](C)[C@H](NC(=O)[C@H](C)NC(=O)[C@@H](NC(=O)[C@H](CCC(N)=O)NC(=O)[C@@H]1CCCN1C(=O)[C@H](Cc1ccccc1)NC(=O)[C@@H](NC(=O)[C@H](Cc1c[nH]cn1)NC(=O)[C@H](Cc1ccccc1)NC(=O)[C@H](CCCCN)NC(=O)[C@H](CC(N)=O)NC(=O)[C@H](Cc1ccccc1)NC(=O)[C@H](CC(=O)O)NC(=O)[C@H](CCC(N)=O)NC(=O)[C@@H](NC(=O)[C@H](Cc1ccc(O)cc1)NC(=O)[C@@H](NC(=O)CNC(=O)[C@H](CC(C)C)NC(=O)[C@H](CCSC)NC(=O)[C@@H]1CSSC[C@H](N)C(=O)NCC(=O)N[C@@H](CC(N)=O)C(=O)N[C@@H](CC(C)C)C(=O)N[C@@H](CO)C(=O)N[C@@H]([C@@H](C)O)C(=O)N1)[C@@H](C)O)[C@@H](C)O)[C@@H](C)O)[C@@H](C)O)C(=O)NCC(=O)N[C@H](C(=O)NCC(=O)N[C@@H](C)C(=O)N1CCC[C@H]1C(N)=O)C(C)C [hCT] | 105 ± 5 |  | 130 ± 9 |  | 116 ± 6 |  | 74 ± 3 |  | 104 ± 6 | 
CC(C)C[C@H](NC(=O)[C@H](CC(N)=O)NC(=O)[C@H](CC(N)=O)NC(=O)[C@H](CO)NC(=O)[C@H](CO)NC(=O)[C@H](CCCNC(=N)N)NC(=O)[C@@H](NC(=O)[C@H](CC(C)C)NC(=O)[C@H](Cc1ccccc1)NC(=O)[C@H](CC(N)=O)NC(=O)[C@H](C)NC(=O)[C@H](CC(C)C)NC(=O)[C@H](CCCNC(=N)N)NC(=O)[C@H](CCC(N)=O)NC(=O)[C@@H](NC(=O)[C@H](C)NC(=O)[C@@H]1CSSC[C@H](NC(=O)[C@@H](N)CCCCN)C(=O)N[C@@H](CC(N)=O)C(=O)N[C@@H]([C@@H](C)O)C(=O)N[C@@H](C)C(=O)N[C@@H]([C@@H](C)O)C(=O)N1)[C@@H](C)O)C(C)C)C(=O)NCC(=O)N1CCC[C@H]1C(=O)N[C@H](C(=O)N[C@@H](CC(C)C)C(=O)N1CCC[C@H]1C(=O)N1CCC[C@H]1C(=O)N[C@H](C(=O)N[C@@H](CC(N)=O)C(=O)N[C@H](C(=O)NCC(=O)N[C@@H](CO)C(=O)N[C@@H](CC(N)=O)C(=O)N[C@H](C(=O)N[C@@H](Cc1ccc(O)cc1)C(N)=O)[C@@H](C)O)C(C)C)[C@@H](C)O)C(C)C [rAmy] | 90 ± 9 |  | 95 ± 9 |  | 109 ± 10 |  | 71 ± 7 |  |  | 
CSCC[C@H](NC(=O)CNC(=O)[C@H](CO)NC(=O)[C@H](Cc1ccccc1)NC(=O)[C@H](CCCNC(=N)N)NC(=O)[C@H](Cc1c[nH]cn1)NC(=O)[C@H](Cc1ccccc1)NC(=O)[C@H](CC(N)=O)NC(=O)[C@H](CC(N)=O)NC(=O)[C@H](CC(C)C)NC(=O)[C@H](CC(N)=O)NC(=O)[C@H](CCCNC(=N)N)NC(=O)[C@H](Cc1c[nH]c2ccccc12)NC(=O)[C@H](Cc1ccc(O)cc1)NC(=O)[C@H](C)NC(=O)[C@H](CO)NC(=O)[C@H](CC(C)C)NC(=O)[C@@H](NC(=O)[C@@H]1CSSC[C@H](N)C(=O)N[C@@H](CO)C(=O)N[C@@H](CC(N)=O)C(=O)N[C@@H](CC(C)C)C(=O)N[C@@H](CO)C(=O)N[C@@H]([C@@H](C)O)C(=O)N1)C(C)C)C(=O)NCC(=O)N[C@@H](Cc1ccccc1)C(=O)NCC(=O)N1CCC[C@H]1C(=O)N[C@@H](CCC(=O)O)C(=O)N[C@H](C(=O)N1CCC[C@H]1C(N)=O)[C@@H](C)O [pCT] (H-CSNLSTCVLSAYWRNLNNFHRFSGMGFGPETP-NH2; disulfide 1-7) | 105 ± 6 | 0.0398 | 113 ± 8 | 0.162 | 117 ± 11 | 0.0501 | 80 ± 8 | 0.02 | 100 ± 5 | 1.17
CC(C)C[C@H](NC(=O)[C@H](CCCCN)NC(=O)CNC(=O)[C@H](CC(C)C)NC(=O)[C@@H](NC(=O)[C@@H]1CSSC[C@H](N)C(=O)N[C@@H](CO)C(=O)N[C@@H](CC(N)=O)C(=O)N[C@@H](CC(C)C)C(=O)N[C@@H](CO)C(=O)N[C@@H]([C@@H](C)O)C(=O)N1)C(C)C)C(=O)N[C@@H](CO)C(=O)N[C@@H](CCC(N)=O)C(=O)N[C@@H](CCC(=O)O)C(=O)N[C@@H](CC(C)C)C(=O)N[C@@H](Cc1c[nH]cn1)C(=O)N[C@@H](CCCCN)C(=O)N[C@@H](CC(C)C)C(=O)N[C@@H](CCC(N)=O)C(=O)N[C@H](C(=O)N[C@@H](Cc1ccc(O)cc1)C(=O)N1CCC[C@H]1C(=O)N[C@@H](CCCNC(=N)N)C(=O)N[C@H](C(=O)N[C@@H](CC(N)=O)C(=O)N[C@H](C(=O)NCC(=O)N[C@@H](CO)C(=O)NCC(=O)N[C@H](C(=O)N1CCC[C@H]1C(N)=O)[C@@H](C)O)[C@@H](C)O)[C@@H](C)O)[C@@H](C)O [sCT] | 98 ± 9 |  | 84 ± 4 |  | 113 ± 11 |  | 81 ± 5 |  | 87 ± 5 | 
